Laboratory results taken from US20250289812A1, “COMPOUND FOR TREATING THROMBOTIC DISEASES” (SHANGHAI INSTITUTE OF MATERIA MEDICA, CHINESE ACADEMY OF …, priority 2020, published 2025).

How the values were obtained:
[1] = molecular target: Src kinase SH3 domain protein (Homo sapiens (Human), UniProt P12931); test: Surface plasmon resonance (SPR) determination of dissociation constants with SH3 protein; type: binding; details: SH3 protein coupled to CM5 chip
Method: 1. Experimental method: Surface plasmon resonance test was carried out on BIACORE T200 instrument (GE Company). Fresh purified grade Src kinase SH3 domain protein (concentration 2 mg/ml) was diluted to 0.1 mg/ml with 10 mM CH3COONa (pH 4.2) and then SH3 protein was coupled to the CM5 chip by standard amino coupling methods. The compounds of the invention were diluted in a gradient using a buffer solution (20 mM Tris-HCl, PH 8.0, 100 mM NaCl) for 60 seconds and dissociated for 120 seconds at a flow rate of […], respectively. The changes in response values over time were recorded and analyzed by the BIA Evaluation Software (GE Healthcare) program to obtain the dissociation constants KD for the different compounds with SH3 protein.
2. Experimental results and conclusions: The dissociation constants KD of different compounds and SH3 protein were described in Table 2, and the surface plasmon resonance (SPR) experimental results of some compounds were shown in FIG. 1.

[2] = test system: platelets on solid phase fibrinogen; test: Effect of compound on platelet stretching on solid phase fibrinogen; type: cell-based; details: 1 h, washed platelets, incubated 60 min at 37° C., read-out: Concentration range for compounds that inhibit platelet stretching on fibrinogen
Method: 1. Experimental method: Firstly, 50 μl fibrinogen (0.1M, diluted with pH 8.3 sodium bicarbonate, 20 μg/ml) was added to 96-well plate, and coated overnight at 4° C. After being washed by PBS for 3 times in the morning, sealed with bovine serum albumin (20 mg/ml) at 37° C. for 60 min, then 100 μl of washed platelet suspension was taken, and added into compounds in each group to make the final concentration 250 μM, and incubated at 37° C. for 60 min. 50 μl of incubated platelets were added to 96-well plate, adhered in a temperature box at 37° C. for 60 min, unadhered platelets were removed by PBS washing for 3 times, and adhered platelets were stably fixed with 4% paraformaldehyde, and washed with PBS for 3 times. Then the platelet membrane was perforated with 0.5% Triton X-100, and then the platelet was stained with 0.5 μg/ml phalloidin-rhodamine for 60 min at 37° C. and washed 3 times (10 min each) with PBS.
2. Experimental results and conclusions: The concentration of different compounds on platelet stretching on fibrinogen was shown in Table 3, and the inhibitory effect of some compounds on platelet stretching was shown in FIG. 2.

Chain of Src kinase SH3 domain protein (P12931 whole entry, looked up, the tested form may be a part): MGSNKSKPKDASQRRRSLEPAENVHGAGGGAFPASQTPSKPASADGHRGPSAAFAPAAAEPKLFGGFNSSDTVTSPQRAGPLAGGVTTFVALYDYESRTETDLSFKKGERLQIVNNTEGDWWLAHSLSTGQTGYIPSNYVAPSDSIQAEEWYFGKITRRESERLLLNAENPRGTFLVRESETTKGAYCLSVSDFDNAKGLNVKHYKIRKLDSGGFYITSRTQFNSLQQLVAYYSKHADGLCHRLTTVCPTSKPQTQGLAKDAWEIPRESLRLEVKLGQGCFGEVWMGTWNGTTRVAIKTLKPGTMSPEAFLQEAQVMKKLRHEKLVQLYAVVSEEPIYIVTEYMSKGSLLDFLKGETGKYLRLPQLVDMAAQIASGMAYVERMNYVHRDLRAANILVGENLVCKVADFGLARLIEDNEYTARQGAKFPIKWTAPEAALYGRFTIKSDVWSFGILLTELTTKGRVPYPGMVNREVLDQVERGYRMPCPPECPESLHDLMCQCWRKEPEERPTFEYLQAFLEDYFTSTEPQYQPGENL

Row | Compound | Kd [1] | minimal effective concentration [2]
1 | CCOC(=O)c1c(CNC(=N)N)sc2cc(-c3cccc4ccccc34)c(C3CCCC3)cc12 [SYY-C121] | 1 to 10 µM | 100 to 250 µM
2 | CCOC(=O)c1c(CNC(=N)N)sc2cc(-c3cccc4ccccc34)c(C3CCCCC3)cc12 [SYY-C122] | < 1 µM | 10 to 100 µM
3 | CCOC(=O)c1c(CNC(=N)N)sc2cc(-c3cccc4ccccc34)c(C3=CCCC3)cc12 [SYY-C123] | 10 to 100 µM | 100 to 250 µM
4 | CCOC(=O)c1c(CNC(=N)N)sc2cc(-c3cccc4ccccc34)c(C3=CCCCC3)cc12 [SYY-C124] | < 1 µM | 10 to 100 µM
5 | CCOC(=O)c1c(CNC(=N)N)sc2cc(-c3cccc4ccccc34)c(OC)cc12 [SYY-C125] | < 1 µM | 10 to 100 µM
6 | CCOC(=O)c1c(CNC(=N)N)sc2cc(-c3cccc4ccccc34)c(OC3CCCC3)cc12 [SYY-C126] | < 1 µM | 10 to 100 µM
7 | CCOC(=O)c1c(CNC(=N)N)sc2cc(-c3cccc4ccccc34)c(OC3CCCCC3)cc12 [SYY-C127] | < 1 µM | 10 to 100 µM

Now from value to molecule, other results behind:

Row | Kd [1] | Compound | minimal effective concentration [2]
8 | 10 to 100 µM | CCOC(=O)c1c(CNC(=N)N)sc2cc(-c3cccc4ccccc34)c(Oc3ccccc3)cc12 [SYY-C128] | 100 to 250 µM
9 | < 1 µM | CCOC(=O)c1c(CNC(=N)N)sc2cc(-c3cccc4ccccc34)c(Oc3ccncc3)cc12 [SYY-C129] | 10 to 100 µM
10 | 10 to 100 µM | CCOC(=O)c1c(CNC(=N)N)sc2cc(-c3cccc4ccccc34)c(C3=CCCc4ccccc43)cc12 [SYY-C130] | 100 to 250 µM
11 | 10 to 100 µM | CCOC(=O)c1c(CNC(=N)N)sc2cc(-c3cccc4ccccc34)c(C3CCCc4ccccc43)cc12 (stereo not shown) [SYY-C131] | 100 to 250 µM
